Measurements: US10413505B1, “Pharmaceutical compositions and methods of using the same” (priority 2017, dated 2019)
Counter-ions that a name gives are not always drawn.

System: healthy adult subjects
Test: Example 11 ECG (QT/QTc) crossover study
Procedure: This was a single-dose, partially blinded, randomized, four-period, four-treatment, crossover study in which 24 healthy adult subjects received separate single doses of cocaine topical solution (8%), cocaine topical solution (4%), placebo, and moxifloxacin HCl tablet (400 mg) in four study periods. Each subject received a different treatment in each study period. Subjects received each of the following treatments in randomized fashion during the four treatment periods: (1) Treatment A: Cocaine hydrochloride, USP, topical solution, 8%; Dose=320 mg (80 mg/mL×4 mL); (2) Treatment B: Cocaine hydrochloride, USP, topical solution, 4%; Dose=160 mg (40 mg/mL×4 mL); (3) Treatment C: Placebo; and (4) Treatment D: AVELOX® (moxifloxacin hydrochloride); Dose=400 mg (1×400 mg tablet).
Treatments A, B, and C were blinded, while Treatment D was open label. Each drug administration was separated by a washout period of at least 4 days. […] Moxifloxacin HCl was orally administered along with approximately 240 mL (8 fl oz) of room temperature water.
A 25-hour continuous 12-lead ECG recording was performed on Day 1, starting 1 hour before dosing. At the designated time points, up to 10 replicate ECGs were extracted and intervals were measured using the High Precision QT technique. […] During protocol-specified ECG extraction windows, 10-second digital 12-lead ECG tracings were extracted from continuous recordings (preceded by a 10-minute supine rest period) at the following time points: predose (3 time points) and 20 minutes (end of cocaine dose; immediately after pledget removal), 40 minutes, and at 1, 1.25, 1.5, 2, 2.5, 3, 4, 6, 8, 12, and 24 hours after pledget insertion/moxifloxacin dosing.
The primary ECG endpoint was ΔQTcF. ΔQTcF is the QTc corrected for heart rate by the Fridericia method. The term “QTc”, as used herein, refers to the duration of the QT interval adjusted for the patient's heart rate.
The secondary ECG endpoints were: change-from-baseline heart rate (“HR”), time from beginning of the P-wave to the beginning of the next QRS complex (“PR”), deflections in the tracing of the electrocardiogram comprising the Q, R, and S waves that represent depolarization of the ventricles (“QRS”), time elapsed between two consecutive R waves (“RR”), and measure of the time in the tracing of the electrocardiogram between the start of the Q-wave and the end of the T-wave (“QT”); and T-wave morphological changes.

[1] = 400 mg, 20 min post-dose, QT/QTc Population
[2] = 400 mg, 40 min post-dose, QT/QTc Population
[3] = 400 mg, 1 hour post-dose, QT/QTc Population
[4] = 400 mg, 1.25 hour post-dose, QT/QTc Population
[5] = 400 mg, 1.5 hour post-dose, QT/QTc Population
[6] = 400 mg, 2 hours post-dose, QT/QTc Population
[7] = 400 mg, 3 hours post-dose, QT/QTc Population
[8] = 400 mg, 4 hours post-dose, QT/QTc Population
[9] = 400 mg, 6 hours post-dose, QT/QTc Population
[10] = 400 mg, 8 hours post-dose, QT/QTc Population
[11] = 400 mg, 12 hours post-dose, QT/QTc Population
[12] = 400 mg, 24 hours post-dose, QT/QTc Population
[13] = 400 mg, […] post-dose, QT/QTc Population
[14] = 20 min post-dose, QT/QTc Population
[15] = 40 min post-dose, QT/QTc Population
[16] = 1 hour post-dose, QT/QTc Population
[17] = 1.25 hour post-dose, QT/QTc Population
[18] = 1.5 hour post-dose, QT/QTc Population
[19] = 2 hours post-dose, QT/QTc Population
[20] = 3 hours post-dose, QT/QTc Population
[21] = 4 hours post-dose, QT/QTc Population
[22] = 6 hours post-dose, QT/QTc Population
[23] = 8 hours post-dose, QT/QTc Population
[24] = 12 hours post-dose, QT/QTc Population
[25] = 24 hours post-dose, QT/QTc Population
[26] = […] post-dose, QT/QTc Population

COc1c(N2C[C@@H]3CCCN[C@@H]3C2)c(F)cc2c(=O)c(C(=O)O)cn(C3CC3)c12 [moxifloxacin HCl, moxifloxacin hydrochloride]
peak ΔQTcF (400 mg oral, 4 hours post-dosing): 14.4 ms
peak ΔΔQTcF (400 mg oral, 4 h post-dose): 15.2 ms
ΔPR, change-from-baseline PR, LSMean [1]: 1.1 ms
ΔQRS, change-from-baseline QRS, LSMean [1]: -0.5 ms
ΔQT, change-from-baseline QT, LSMean [1]: -5.3 ms
ΔRR, change-from-baseline RR, LSMean [1]: -18.8 ms
ΔΔPR, placebo-corrected change-from-baseline PR, LSMean [1]: 2.1 ms
ΔPR, change-from-baseline PR, LSMean [2]: 1.4 ms
ΔQRS, change-from-baseline QRS, LSMean [2]: -0.5 ms
ΔQT, change-from-baseline QT, LSMean [2]: 2.2 ms
ΔRR, change-from-baseline RR, LSMean [2]: -15.8 ms
ΔΔPR, placebo-corrected change-from-baseline PR, LSMean [2]: 0.1 ms
ΔPR, change-from-baseline PR, LSMean [3]: 0.8 ms
ΔQRS, change-from-baseline QRS, LSMean [3]: -0.4 ms
ΔQT, change-from-baseline QT, LSMean [3]: 3.9 ms
ΔRR, change-from-baseline RR, LSMean [3]: -24.5 ms
ΔΔPR, placebo-corrected change-from-baseline PR, LSMean [3]: 0.1 ms
ΔPR, change-from-baseline PR, LSMean [4]: 0.5 ms
ΔQRS, change-from-baseline QRS, LSMean [4]: 0.2 ms
ΔQT, change-from-baseline QT, LSMean [4]: 3.9 ms
ΔRR, change-from-baseline RR, LSMean [4]: -35.1 ms
ΔΔPR, placebo-corrected change-from-baseline PR, LSMean [4]: -0.2 ms
ΔPR, change-from-baseline PR, LSMean [5]: -0.7 ms
ΔQRS, change-from-baseline QRS, LSMean [5]: 0.0 ms
ΔQT, change-from-baseline QT, LSMean [5]: 0.8 ms
ΔRR, change-from-baseline RR, LSMean [5]: -58.5 ms
ΔΔPR, placebo-corrected change-from-baseline PR, LSMean [5]: -1.9 ms
ΔPR, change-from-baseline PR, LSMean [6]: 0.2 ms
ΔQRS, change-from-baseline QRS, LSMean [6]: 0.0 ms
ΔQT, change-from-baseline QT, LSMean [6]: 4.2 ms
ΔRR, change-from-baseline RR, LSMean [6]: -33.8 ms
ΔΔPR, placebo-corrected change-from-baseline PR, LSMean [6]: 0.2 ms
ΔPR, change-from-baseline PR, LSMean [7]: -2.1 ms
ΔQRS, change-from-baseline QRS, LSMean [7]: 0.0 ms
ΔQT, change-from-baseline QT, LSMean [7]: 7.5 ms
ΔRR, change-from-baseline RR, LSMean [7]: -41.1 ms
ΔΔPR, placebo-corrected change-from-baseline PR, LSMean [7]: -2.1 ms
ΔPR, change-from-baseline PR, LSMean [8]: -1.5 ms
ΔQRS, change-from-baseline QRS, LSMean [8]: -0.0 ms
ΔQT, change-from-baseline QT, LSMean [8]: 6.7 ms
ΔRR, change-from-baseline RR, LSMean [8]: -121.3 ms
ΔΔPR, placebo-corrected change-from-baseline PR, LSMean [8]: -1.4 ms
ΔPR, change-from-baseline PR, LSMean [9]: -4.2 ms
ΔQRS, change-from-baseline QRS, LSMean [9]: -0.5 ms
ΔQT, change-from-baseline QT, LSMean [9]: -9.5 ms
ΔRR, change-from-baseline RR, LSMean [9]: -121.3 ms
ΔΔPR, placebo-corrected change-from-baseline PR, LSMean [9]: -2.6 ms
ΔPR, change-from-baseline PR, LSMean [10]: -5.2 ms
ΔQRS, change-from-baseline QRS, LSMean [10]: -0.5 ms
ΔQT, change-from-baseline QT, LSMean [10]: -7.6 ms
ΔRR, change-from-baseline RR, LSMean [10]: -88.8 ms
ΔΔPR, placebo-corrected change-from-baseline PR, LSMean [10]: -1.4 ms
ΔPR, change-from-baseline PR, LSMean [11]: -4.7 ms
ΔQRS, change-from-baseline QRS, LSMean [11]: -0.0 ms
ΔQT, change-from-baseline QT, LSMean [11]: -14.0 ms
ΔRR, change-from-baseline RR, LSMean [11]: -151.8 ms
ΔΔPR, placebo-corrected change-from-baseline PR, LSMean [11]: -3.9 ms
ΔPR, change-from-baseline PR, LSMean [12]: -0.9 ms
ΔQRS, change-from-baseline QRS, LSMean [12]: 0.1 ms
ΔQT, change-from-baseline QT, LSMean [12]: -6.6 ms
ΔRR, change-from-baseline RR, LSMean [12]: -65.8 ms
ΔΔPR, placebo-corrected change-from-baseline PR, LSMean [12]: 1.7 ms
T-wave morphology treatment emergent changes: Biphasic, Subject count (400 mg, QT/QTc Population): 0
T-wave morphology treatment emergent changes: Biphasic, Timepoint count (400 mg, QT/QTc Population): 0
T-wave morphology treatment emergent changes: Flat, Subject count (400 mg, QT/QTc Population): 0
T-wave morphology treatment emergent changes: Flat, Timepoint count (400 mg, QT/QTc Population): 0
T-wave morphology treatment emergent changes: Normal (−), Subject count (400 mg, QT/QTc Population): 0
T-wave morphology treatment emergent changes: Normal (−), Timepoint count (400 mg, QT/QTc Population): 0
T-wave morphology treatment emergent changes: Notched (+), Subject count (400 mg, QT/QTc Population): 0
T-wave morphology treatment emergent changes: Notched (+), Timepoint count (400 mg, QT/QTc Population): 0
T-wave morphology treatment emergent changes: Notched (−), Subject count (400 mg, QT/QTc Population): 0
T-wave morphology treatment emergent changes: Notched (−), Timepoint count (400 mg, QT/QTc Population): 0
ΔPR, change-from-baseline PR, LSMean [13]: -0.8 ms
ΔQRS, change-from-baseline QRS, LSMean [13]: -0.3 ms
ΔQT, change-from-baseline QT, LSMean [13]: 6.1 ms
ΔRR, change-from-baseline RR, LSMean [13]: -37.0 ms
ΔΔPR, placebo-corrected change-from-baseline PR, LSMean [13]: 0.5 ms
ΔHR (change-from-baseline HR), LSMean [14]: 1.0 bpm
ΔQTcF (change-from-baseline QTcF), LSMean [14]: -3.1 ms
ΔΔHR (placebo-corrected change-from-baseline HR), LSMean [14]: −4.4 bpm
ΔΔQTcF (placebo-corrected change-from-baseline QTcF), LSMean [14]: -0.1 ms
ΔHR (change-from-baseline HR), LSMean [15]: 1.3 bpm
ΔQTcF (change-from-baseline QTcF), LSMean [15]: 4.4 ms
ΔΔHR (placebo-corrected change-from-baseline HR), LSMean [15]: 0.4 bpm
ΔΔQTcF (placebo-corrected change-from-baseline QTcF), LSMean [15]: 5.4 ms
ΔHR (change-from-baseline HR), LSMean [16]: 1.8 bpm
ΔQTcF (change-from-baseline QTcF), LSMean [16]: 7.4 ms
ΔΔHR (placebo-corrected change-from-baseline HR), LSMean [16]: 1.7 bpm
ΔΔQTcF (placebo-corrected change-from-baseline QTcF), LSMean [16]: 7.8 ms
ΔHR (change-from-baseline HR), LSMean [17]: 2.6 bpm
ΔQTcF (change-from-baseline QTcF), LSMean [17]: 9.1 ms
ΔΔHR (placebo-corrected change-from-baseline HR), LSMean [17]: 2.7 bpm
ΔΔQTcF (placebo-corrected change-from-baseline QTcF), LSMean [17]: 8.7 ms
ΔHR (change-from-baseline HR), LSMean [18]: 3.9 bpm
ΔQTcF (change-from-baseline QTcF), LSMean [18]: 8.4 ms
ΔΔHR (placebo-corrected change-from-baseline HR), LSMean [18]: 3.8 bpm
ΔΔQTcF (placebo-corrected change-from-baseline QTcF), LSMean [18]: 7.9 ms
ΔHR (change-from-baseline HR), LSMean [19]: 2.3 bpm
ΔQTcF (change-from-baseline QTcF), LSMean [19]: 9.0 ms
ΔΔHR (placebo-corrected change-from-baseline HR), LSMean [19]: 3.1 bpm
ΔΔQTcF (placebo-corrected change-from-baseline QTcF), LSMean [19]: 8.9 ms
ΔHR (change-from-baseline HR), LSMean [20]: 2.6 bpm
ΔQTcF (change-from-baseline QTcF), LSMean [20]: 13.2 ms
ΔΔHR (placebo-corrected change-from-baseline HR), LSMean [20]: 2.5 bpm
ΔΔQTcF (placebo-corrected change-from-baseline QTcF), LSMean [20]: 13.0 ms
ΔHR (change-from-baseline HR), LSMean [21]: 3.4 bpm
ΔQTcF (change-from-baseline QTcF), LSMean [21]: 14.4 ms
ΔΔHR (placebo-corrected change-from-baseline HR), LSMean [21]: 1.6 bpm
ΔΔQTcF (placebo-corrected change-from-baseline QTcF), LSMean [21]: 15.2 ms
ΔHR (change-from-baseline HR), LSMean [22]: 8.2 bpm
ΔQTcF (change-from-baseline QTcF), LSMean [22]: 7.2 ms
ΔΔHR (placebo-corrected change-from-baseline HR), LSMean [22]: 2.5 bpm
ΔΔQTcF (placebo-corrected change-from-baseline QTcF), LSMean [22]: 10.9 ms
ΔHR (change-from-baseline HR), LSMean [23]: 5.7 bpm
ΔQTcF (change-from-baseline QTcF), LSMean [23]: 4.4 ms
ΔΔHR (placebo-corrected change-from-baseline HR), LSMean [23]: 1.6 bpm
ΔΔQTcF (placebo-corrected change-from-baseline QTcF), LSMean [23]: 11.5 ms
ΔHR (change-from-baseline HR), LSMean [24]: 10.7 bpm
ΔQTcF (change-from-baseline QTcF), LSMean [24]: 7.3 ms
ΔΔHR (placebo-corrected change-from-baseline HR), LSMean [24]: 1.5 bpm
ΔΔQTcF (placebo-corrected change-from-baseline QTcF), LSMean [24]: 9.6 ms
ΔHR (change-from-baseline HR), LSMean [25]: 4.2 bpm
ΔQTcF (change-from-baseline QTcF), LSMean [25]: 2.4 ms
ΔΔHR (placebo-corrected change-from-baseline HR), LSMean [25]: −0.0 bpm
ΔΔQTcF (placebo-corrected change-from-baseline QTcF), LSMean [25]: 7.5 ms
ΔHR (change-from-baseline HR), LSMean [26]: 2.6 bpm
ΔQTcF (change-from-baseline QTcF), LSMean [26]: 11.5 ms
ΔΔHR (placebo-corrected change-from-baseline HR), LSMean [26]: 0.9 bpm
ΔΔQTcF (placebo-corrected change-from-baseline QTcF), LSMean [26]: 9.8 ms
